Source: article PMC5833756, “A novel ruthenium complex with xanthoxylin induces S-phase arrest and causes ERK1/2-mediated apoptosis in HepG2 cells through a p53-independent pathway” (Cell Death & Disease, 2018)
Where two headings read alike, the source gives them in different places. Marks after values point to notes of the source that are not given here.

Legend:
SCC-4 = assay type: cell-based, human; conditions: for IC50: SCC-4 (human oral squamous cell carcinoma), 72 h
[1] = system: multicellular spheroids formed from HepG2 cells; experiment: 3D multicellular spheroid culture, alamar blue; assay type: cell-based, human; conditions: HepG2 3D spheroids, 72 h
Experimental: HepG2 cells were cultivated in 3D multicellular spheroids. Briefly, 100 μL of cell solution (0.5 × 10^6 cells/mL) was added to a 96-well plate with a cell-repellent surface (Greiner Bio-One, Kremsmünster, Austria) and cultured in complete medium plus 3% Matrigel (BD Biosciences, San Jose, CA, USA). Spheroids with stable structures formed after three days. Then, the spheroids were exposed to a range of drug concentrations for 72 h. The negative control received the vehicle that was used for diluting the complex tested. In the end of the experiment, morphological changes were examined by light microscopy (Olympus BX41, Tokyo, Japan) using Image-Pro software (Media Cybernetics, Inc. Silver Spring, USA), and cell viability was quantified by alamar blue assay as described above.

SCC-15 = assay type: cell-based, human; conditions: for IC50: SCC-15 (human oral squamous cell carcinoma), 72 h
HepG2 = assay type: cell-based, human; conditions: for IC50: HepG2 (human hepatocellular carcinoma), monolayer, 72 h
B16-F10 = assay type: cell-based, mouse; conditions: for IC50: B16-F10 (murine melanoma), 72 h
HepG2 cells [2] = experiment: Trypan blue exclusion assay; assay type: cell-based, human
calf thymus DNA = experiment: DNA intercalation assay (ethidium bromide displacement); assay type: binding; conditions: 20 μM, cell-free, 15 min
Experimental: DNA intercalation was assessed by examining the ability of the complex to displace ethidium bromide from ctDNA (Sigma-Aldrich)[36]. […] After a 15 min of incubation at room temperature, fluorescence was measured using the excitation and emission wavelengths of 320 nm and 600 nm, respectively, using the Spectramax Microplate Reader (Molecular Devices).

ACP-03 = assay type: cell-based, human; conditions: for IC50: ACP-03 (human gastric adenocarcinoma), 72 h
HCT116 = assay type: cell-based, human; conditions: for IC50: HCT116 (human colon carcinoma), 72 h
SCC-25 = assay type: cell-based, human; conditions: for IC50: SCC-25 (human oral squamous cell carcinoma), 72 h
MRC-5 = assay type: cell-based; conditions: MRC-5 (human lung fibroblast, non-cancer), 72 h
SCC-9 = assay type: cell-based, human; conditions: for IC50: SCC-9 (human oral squamous cell carcinoma), 72 h
HL-60 = assay type: cell-based, human; conditions: for IC50: HL-60 (human promyelocytic leukemia), 72 h
PBMC = assay type: cell-based; conditions: PBMC (human peripheral blood mononuclear cells, non-cancer), 72 h
[3] = for lung histopathological characteristics: atelectasis, hemorrhage, congestion, doxorubicin 0.3 mg/kg, RCX both doses; for Initial body weight: before treatment; for Final body weight / Survival / Differential leukocytes: Eosinophils / Differential leukocytes: Lymphocytes / Differential leukocytes: Monocytes / Differential leukocytes: Neutrophils / Erythrocytes / Total leukocytes: i.p. 21 days; for Differential leukocytes: Eosinophils / Differential leukocytes: Lymphocytes / Differential leukocytes: Monocytes / Differential leukocytes: Neutrophils / Erythrocytes / Total leukocytes: peripheral blood
Experimental: HepG2 cells (1 × 10^7 cells per 500 µL) were implanted subcutaneously into the left front armpit of the mice. […] The treatments were initiated one day after the tumor cell injection. The animals were treated intraperitoneally (200 µL per animal) once daily for 21 consecutive days. On the 22nd day, the animals were anesthetized, and peripheral blood samples were collected from the brachial artery. Animals were euthanized by anesthetic overdose, and tumors were excised and weighed.
To assess the toxicological effects, mice were weighed at the beginning and at the end of the experiment. […] Hematological analysis was performed using light microscopy. Livers, kidneys, lungs and hearts were removed, weighed and examined for any signs of gross lesions, color changes and/or hemorrhages. After gross macroscopic examination, the tumors, livers, kidneys, lungs and hearts were fixed in 4% formalin buffer and embedded in paraffin. Tissue sections were stained with hematoxylin and eosin chromogens, and a pathologist performed the analysis under a light microscope.

K-562 = assay type: cell-based, human; conditions: for IC50: K-562 (human chronic myelogenous leukemia), 72 h
HSC-3 = assay type: cell-based, human; conditions: for IC50: HSC-3 (human oral squamous cell carcinoma), 72 h
WT SV40 MEF = assay type: cell-based, mouse; conditions: 72 h
HaCAT = assay type: cell-based; conditions: HaCAT (human keratinocyte, non-cancer), 72 h
HT-29 = assay type: cell-based, human; conditions: for IC50: HT-29 (human colon adenocarcinoma), 72 h
HepG2 cells [4] = experiment: Annexin V/PI staining assay (flow cytometry); conditions: HepG2, 12 and 24 µM, 12-72 h
Experimental: For apoptosis detection, we used the FITC Annexin V Apoptosis Detection Kit I (BD Biosciences), and the analysis was performed according to the manufacturer’s instructions. Briefly, cells were washed twice with saline and then resuspended in 100 μL of binding buffer with 5 μL of PI and 5 μL of FITC Annexin V. The cells were gently mixed by vortexing and incubated for 15 min at room temperature in the dark. Afterwards, 400 μL of binding buffer was added to each tube, and the cell fluorescence was determined by flow cytometry, as described above. The percent of viable, early apoptotic, late apoptotic and necrotic cells were determined. […] The cells were then trypsinized, and the FITC Annexin V Apoptosis Detection assay was conducted as described above.

HepG2 cells [5] = experiment: Intracellular reactive oxygen species levels (DCF-DA); assay type: cell-based, human; conditions: HepG2, 1 or 3 h
Experimental: The production levels of ROS were measured according to a previously described method[39] using DCF-DA (Sigma-Aldrich). […] Then, the cells were collected, washed with saline and resuspended in FACS tubes with saline containing 5 μM DCF-DA for 30 min. […] A protection assay using the antioxidant NAC (Sigma-Aldrich) was also performed. […] The cells were then trypsinized, and the TBE assay was performed.

HepG2 cells [6] = experiment: Mitochondrial transmembrane potential (rhodamine 123); assay type: cell-based, human; conditions: HepG2, 24 h
Experimental: Mitochondrial transmembrane potential was determined by the retention of the rhodamine 123 dye[38]. Cells were incubated with rhodamine 123 (5 μg/mL, Sigma-Aldrich Co.) at 37 °C for 15 min in the dark and washed with saline.

[7] = DOX 0.3 mg/kg, 5-FU 10 mg/kg, RCX 2.5 mg/kg groups
[8] = DOX 0.3 mg/kg, 5-FU 10 mg/kg, RCX 2.5 mg/kg
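Wherever Final body weight is given: mice bearing subcutaneous HepG2 xenografts, given intraperitoneal doses once daily for 21 days, weighed at start and end, blood leukocytes counted by light microscopy on day 22.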
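Wherever Initial body weight is given: mice bearing subcutaneous HepG2 xenografts, given intraperitoneal doses once daily for 21 days, weighed at start and end, blood leukocytes counted by light microscopy on day 22.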
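Wherever Survival is given: mice bearing subcutaneous HepG2 xenografts, given intraperitoneal doses once daily for 21 days, weighed at start and end, blood leukocytes counted by light microscopy on day 22.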
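Wherever lung histopathological characteristics is given: mice bearing subcutaneous HepG2 xenografts, given intraperitoneal doses once daily for 21 days, weighed at start and end, blood leukocytes counted by light microscopy on day 22.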

COc1cccc2c1C(=O)c1c(O)c3c(c(O)c1C2=O)C[C@@](O)(C(=O)CO)C[C@@H]3O[C@H]1C[C@H](N)[C@H](O)[C@H](C)O1 [DOX, doxorubicin]
selectivity index (SI) (SCC-4; IC50 HaCAT / IC50 SCC-4): 0.1
selectivity index (SI) (SCC-4; IC50 MRC5 / IC50 SCC-4): 0.6
selectivity index (SI) (SCC-4; IC50 PBMC / IC50 SCC-4): 2.5
IC50 (SCC-4): 2.1 µM
IC50 ([1]; Homo sapiens): 18.1 µM
selectivity index (SI) (SCC-15; IC50 HaCAT / IC50 SCC-15): 0.1
selectivity index (SI) (SCC-15; IC50 MRC5 / IC50 SCC-15): 0.9
selectivity index (SI) (SCC-15; IC50 PBMC / IC50 SCC-15): 3.5
IC50 (SCC-15): 1.5 µM
IC50 (HepG2): 1.3 µM
selectivity index (SI) (HepG2; IC50 HaCAT / IC50 HepG2): 0.1
selectivity index (SI) (HepG2; IC50 MRC5 / IC50 HepG2): 1
selectivity index (SI) (HepG2; IC50 PBMC / IC50 HepG2): 4
selectivity index (SI) (B16-F10; IC50 HaCAT / IC50 B16-F10): 0.2
selectivity index (SI) (B16-F10; IC50 MRC5 / IC50 B16-F10): 2.2
selectivity index (SI) (B16-F10; IC50 PBMC / IC50 B16-F10): 8.7
IC50 (B16-F10; Mus musculus): 0.6 µM
change in the number of viable cells (HepG2 cells [2]; HepG2, 24 h, DOX 2 µM, OXA 10 µM): reduced the number of viable cells
displacement of ethidium bromide from ctDNA (fluorescence) (calf thymus DNA): significantly reduced the fluorescence intensity
IC50 (ACP-03): 2.4 µM
selectivity index (SI) (ACP-03; IC50 HaCAT / IC50 ACP-03): 0.04
selectivity index (SI) (ACP-03; IC50 MRC5 / IC50 ACP-03): 0.5
selectivity index (SI) (ACP-03; IC50 PBMC / IC50 ACP-03): 2.2
IC50 (HCT116; HCT-116): 200 nM
selectivity index (SI) (HCT116; IC50 HaCAT / IC50 HCT116): 0.5
selectivity index (SI) (HCT116; IC50 MRC5 / IC50 HCT116): 6.5
selectivity index (SI) (HCT116; IC50 PBMC / IC50 HCT116): 26
selectivity index (SI) (SCC-25; IC50 HaCAT / IC50 SCC-25): 0.1
selectivity index (SI) (SCC-25; IC50 MRC5 / IC50 SCC-25): 1.3
selectivity index (SI) (SCC-25; IC50 PBMC / IC50 SCC-25): 5.2
IC50 (SCC-25): 1 µM
IC50 (MRC-5; MRC5): 1.3 µM
selectivity index (SI) (SCC-9; IC50 HaCAT / IC50 SCC-9): 0.04
selectivity index (SI) (SCC-9; IC50 MRC5 / IC50 SCC-9): 0.5
selectivity index (SI) (SCC-9; IC50 PBMC / IC50 SCC-9): 2
IC50 (SCC-9): 2600 nM
IC50 (HL-60): 0.2 µM
selectivity index (SI) (HL-60; IC50 HaCAT / IC50 HL-60): 0.5
selectivity index (SI) (HL-60; IC50 MRC5 / IC50 HL-60): 6.5
selectivity index (SI) (HL-60; IC50 PBMC / IC50 HL-60): 26
IC50 (PBMC): 5.2 µM
lung histopathological characteristics ([3]; inflammation, 21 days): more pronounced in the doxorubicin and RCX (both doses) groups than in the other groups
Initial body weight [3, 7]: 22.3 ± 0.4 g
Final body weight [3, 8]: 19.5 ± 0.6 g
Survival [3, 8]: 14/14
Differential leukocytes: Eosinophils [3, 8]: 1.0%
Differential leukocytes: Lymphocytes [3, 8]: 49.3%
Differential leukocytes: Monocytes [3, 8]: 1.0%
Differential leukocytes: Neutrophils [3, 8]: 48.8%
Erythrocytes [3, 8]: 8.9 ± 0.7 10^6cells/μL
Total leukocytes [3, 8]: 1.5 ± 0.2* 10^3cells/μL
selectivity index (SI) (K-562; IC50 HaCAT / IC50 K-562): 0.1
selectivity index (SI) (K-562; IC50 MRC5 / IC50 K-562): 1.3
selectivity index (SI) (K-562; IC50 PBMC / IC50 K-562): 5.2
IC50 (K-562; K562): 1 µM
IC50 (HSC-3): 0.4 µM
selectivity index (SI) (HSC-3; IC50 HaCAT / IC50 HSC-3): 0.3
selectivity index (SI) (HSC-3; IC50 MRC5 / IC50 HSC-3): 3.3
selectivity index (SI) (HSC-3; IC50 PBMC / IC50 HSC-3): 13
IC50 (WT SV40 MEF; Mus musculus): 40 nM
IC50 (HaCAT): 0.1 µM
IC50 (HT-29): 300 nM
selectivity index (SI) (HT-29; IC50 HaCAT / IC50 HT-29): 0.3
selectivity index (SI) (HT-29; IC50 MRC5 / IC50 HT-29): 4.3
selectivity index (SI) (HT-29; IC50 PBMC / IC50 HT-29): 17.3

COc1cc([O-])c(C(C)=O)c(OC)c1.F[P-](F)(F)(F)(F)F.[Ru+2].c1cnc2c(c1)ccc1cccnc12.c1cnc2c(c1)ccc1cccnc12 [RCX, cis-[Ru(phen)2(xant)](PF6)]
IC50 (SCC-4): 5.3 µM
IC50 [1]: 8 µM
IC50 (SCC-15): 6.8 µM
IC50 (HepG2): 13.5 µM
IC50 (B16-F10): 12.4 µM
reduction of the number of viable cells (HepG2 cells [2]; HepG2, 12 μM, 24 h): 57.2%
reduction of the number of viable cells (HepG2 cells [2]; HepG2, 12 μM, 48 h): 74.6%
reduction of the number of viable cells (HepG2 cells [2]; HepG2, 12 μM, 72 h): 73.8%
reduction of the number of viable cells (HepG2 cells [2]; HepG2, 24 μM, 24 h): 62.2%
reduction of the number of viable cells (HepG2 cells [2]; HepG2, 24 μM, 48 h): 73.9%
reduction of the number of viable cells (HepG2 cells [2]; HepG2, 24 μM, 72 h): 82.1%
change in the number of viable cells (HepG2 cells [2]; HepG2, 12 and 24 μM, 12 h): No significant decrease in the number of viable cells
displacement of ethidium bromide from ctDNA (fluorescence) (calf thymus DNA): decreased the ethidium bromide fluorescence
selectivity index (SI) (ACP-03): 0.2
IC50 (ACP-03): 26 µM
induction of apoptosis (HepG2 cells [4]): caused apoptosis in a time- and concentration-dependent manner
IC50 (HCT116): 1600 nM
IC50 (SCC-25): 6.5 µM
IC50 (MRC-5): 21.3 µM
IC50 (SCC-9): 3400 nM
ROS levels (HepG2 cells [5]): did not induce a significant increase in ROS levels
IC50 (HL-60): 6.6 µM
IC50 (PBMC): 4.6 µM
lung histopathological characteristics ([3]; inflammation, 21 days): more pronounced in the doxorubicin and RCX (both doses) groups than in the other groups
Initial body weight [3, 7]: 22.2 ± 0.5 g
Initial body weight ([3]; RCX 5 mg/kg group): 21.1 ± 0.4 g
liver histopathological characteristics ([3]; hydropic degeneration, dilatation, necrosis, inflammation, RCX 2.5 and 5 mg/kg, 21 days): more pronounced in the RCX groups than in the other groups
Final body weight [3, 8]: 20.6 ± 0.4 g
Survival [3, 8]: 14/14
Final body weight ([3]; RCX 5 mg/kg): 17.0 ± 0.4 g
Survival ([3]; RCX 5 mg/kg): 7/14
Differential leukocytes: Eosinophils [3, 8]: 1.0%
Differential leukocytes: Lymphocytes [3, 8]: 49.3%
Differential leukocytes: Monocytes [3, 8]: 1.0%
Differential leukocytes: Neutrophils [3, 8]: 48.3%
Erythrocytes [3, 8]: 9.0 ± 0.6 10^6cells/μL
Total leukocytes [3, 8]: 3.1 ± 0.5 10^3cells/μL
Differential leukocytes: Eosinophils ([3]; RCX 5 mg/kg): 1.0%
Differential leukocytes: Lymphocytes ([3]; RCX 5 mg/kg): 49.0%
Differential leukocytes: Monocytes ([3]; RCX 5 mg/kg): 1.0%
Differential leukocytes: Neutrophils ([3]; RCX 5 mg/kg): 49.0%
Erythrocytes ([3]; RCX 5 mg/kg): 8.3 ± 0.3 10^6cells/μL
Total leukocytes ([3]; RCX 5 mg/kg): 2.6 ± 0.2 10^3cells/μL
IC50 (K-562): 6.1 µM
mitochondrial membrane potential (HepG2 cells [6]): induced mitochondrial depolarization
IC50 (HSC-3): 7.7 µM
IC50 (WT SV40 MEF): 3900 nM
IC50 (HaCAT): 6.1 µM
IC50 (HT-29): 3400 nM
